In patent publication US10137103B2, “Compositions and methods for the treatment of fatty acid metabolism disorders” (The Children's Hospital of Philadelphia, priority 2015, dated 2018):
Substitutions are numbered along the chain they refer to.

Experiments:
[1] = tested on: ob/ob mice; assay: Liver and serum triglycerides and liver histology in ob/ob mice; assay type: in vivo, mouse
Source text: Formalin-fixed liver sections were stained with Trichrome Stain Kit (Sigma) according to the manufacturer's instructions. Triglycerides were extracted from liver according to the Folch method (Folch et al. (1957) J. Biol. Chem., 226:497-509). Serum and liver triglyceride concentrations were quantified with a triglyceride quantification kit following the manufacturer's instructions (Abcam). Leptin-deficient mice develop liver steatosis spontaneously under normal chow diet starting at 4 to 5 weeks of life that is characterized by a diminished rate of palmitate oxidation and accumulation of fat droplets in the form of triglycerides within the hepatocytes (Brix et al. (2002) Mol. Genet. Metab., 75:219-226; de Oliveira et al. (2008) J. Am. Coll. Nutr., 27:299-305). […] This significant reduction in the rate of palmitoyl-CoA oxidation indicated a deficiency in mitochondrial β-oxidation of fatty acids. […] GSNO was used to deliver nitric oxide equivalents because of the extensive use of this pharmacological agent in cellular models to modify proteins by S-nitrosylation despite limited cellular permeability (Hara et al. (2005) Nat. Cell Biol., 7:665-674; Chung et al. (2004) Science 304:1328-1331). […] Moreover, the restoration of palmitoyl-CoA oxidation in GSNO-injected ob/ob mice was associated with a significant reduction of the concentration of liver triglycerides.

[2] = target: T1, VLCAD (Mus musculus, UniProt P50544); assay: Fraction of S-nitrosylated VLCAD in liver of ob/ob mice (organomercury resin capture); assay type: in vivo; conditions: treated ob/ob mice
T1 sequence (P50544 42-656): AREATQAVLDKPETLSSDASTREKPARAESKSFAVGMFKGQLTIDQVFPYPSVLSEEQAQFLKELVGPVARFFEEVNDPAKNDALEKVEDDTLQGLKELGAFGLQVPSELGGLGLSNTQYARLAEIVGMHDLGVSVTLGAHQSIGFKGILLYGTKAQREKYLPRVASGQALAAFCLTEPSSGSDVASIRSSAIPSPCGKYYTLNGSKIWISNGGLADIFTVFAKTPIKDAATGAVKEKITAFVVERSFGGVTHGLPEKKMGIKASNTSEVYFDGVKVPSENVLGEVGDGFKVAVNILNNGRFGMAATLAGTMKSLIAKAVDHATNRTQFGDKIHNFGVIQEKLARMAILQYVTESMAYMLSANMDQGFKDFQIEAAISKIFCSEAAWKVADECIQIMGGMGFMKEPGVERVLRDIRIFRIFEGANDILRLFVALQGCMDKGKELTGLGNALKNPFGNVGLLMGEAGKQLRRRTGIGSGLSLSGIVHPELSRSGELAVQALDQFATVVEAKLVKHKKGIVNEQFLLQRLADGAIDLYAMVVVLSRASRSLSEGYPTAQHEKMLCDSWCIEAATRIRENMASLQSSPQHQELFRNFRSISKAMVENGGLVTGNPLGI
Source text: These findings confirm the MS/MS analysis showing S-nitrosylation of VLCAD in wild-type and GSNO-treated mouse liver but not in PBS-treated ob/ob mouse liver (FIG. 3C). […] This substantial increase in catalytic efficiency can provide efficient removal of fatty acids in ob/ob mouse liver.

[3] = target: T2, wild-type VLCAD (Mus musculus, UniProt P50544); assay: Hepa 1 to 6 cells expressing FLAG-tagged wild-type VLCAD; assay type: cell-based; conditions: 250 mM GSNO for 30 minutes
T2 construct: 3xFLAG (C); host or cells: Hepa 1 to 6 cells (mouse hepatocytes)
T2 sequence (P50544 42-656): T1 sequence (P50544 42-656)
Method: Hepa 1 to 6 cells were grown in Dulbecco's modified Eagle's medium (DMEM) containing 10% fetal bovine serum, 2 mM glutamine, penicillin (100 U/ml), and streptomycin ([…]) at 37° C. in air with 5% CO2. Cells were plated at a density of 5×10^4 cells/cm^2 and cultured under normal conditions for 24 hours. Cells were transfected with FLAG®-tagged wild-type VLCAD or FLAG®-tagged C238A VLCAD with Lipofectamine® 2000 reagent (Life Technologies) according to the protocol provided by the manufacturer. Forty-eight hours after transfection, the growth medium was replaced with serum-free DMEM, and […] freshly prepared GSNO was added for 30 minutes, after which the cells were extensively washed with PBS. Cell lysates were obtained immediately or 60, 120, and 240 minutes after the removal of GSNO. The samples were protected from UV light exposure. Lysates were assayed for protein concentration, and equal amounts of protein per sample were used for organic mercury-assisted capture.
Additional evidence for the functional consequences of S-nitrosylation of VLCAD was obtained in mouse hepatocytes transiently expressing wild-type VLCAD or a point mutant that could not be S-nitrosylated (C238A). […] Upon removal of GSNO from the media and extensive washing, both the abundance of S-nitrosylated VLCAD and the enzymatic-specific activity declined over time (FIGS. 4A and 4B).

[4] = target: T3, C238A VLCAD mutant (Mus musculus, UniProt P50544, C238A); assay: Hepa 1 to 6 cells expressing FLAG-tagged C238A VLCAD; assay type: cell-based; conditions: same experimental conditions
T3 construct: 3xFLAG (C); mutant made in house by QuikChange) Ex-Mm01013-M14; host or cells: Hepa 1 to 6 cells (mouse hepatocytes)
T3 sequence (P50544 42-656 C238A): T1 sequence (P50544 42-656) with C197A
Source text: The QuikChange® Lightning Site-Directed Mutagenesis Kit (Agilent Technologies) was used to introduce single amino acid mutations in complementary DNA encoding VLCAD. A cysteine-to-alanine mutant at amino acid position 238 was generated with Ex-Mm01013-M14 (hereinafter referred to as pVLCAD-3×FLAG®), a plasmid encoding mouse VLCAD fused to three FLAG® tags in the C-terminal region of the protein (GeneCopoeia), as a template. The forward primer 5′-[…]-3′ (SEQ ID NO: 1) and the reverse primer 5′-[…] […]-3′ (SEQ ID NO: 2) were used to substitute an alanine codon for a cysteine codon in pVLCAD-3×FLAG®, thereby generating pVLCAD-C238A-3×FLAG®. The sequence of both pVLCAD-3×FLAG® and pVLCAD-C238A-3×FLAG® was verified before use in subsequent experiments.
Hepa 1 to 6 cells were grown in Dulbecco's modified Eagle's medium (DMEM) containing 10% fetal bovine serum, 2 mM glutamine, penicillin (100 U/ml), and streptomycin ([…]) at 37° C. in air with 5% CO2. Cells were plated at a density of 5×10^4 cells/cm^2 and cultured under normal conditions for 24 hours. Cells were transfected with FLAG®-tagged wild-type VLCAD or FLAG®-tagged C238A VLCAD with Lipofectamine® 2000 reagent (Life Technologies) according to the protocol provided by the manufacturer. […]

[5] = target: T1, VLCAD; conditions: liver homogenates
[6] = target: T1, VLCAD

## N[C@@H](CCC(=O)N[C@@H](CSN=O)C(=O)NCC(=O)O)C(=O)O [GSNO, S-nitrosoglutathione]
[1]; vs PBS-injected
  fat deposits in liver slices (histology): fewer fat deposits
  liver triglyceride concentration: significantly lowered
[1]; vs wild-type and PBS-treated
  serum triglyceride concentrations: similar
[2]
  fraction of VLCAD molecules in liver S-nitrosylated: 25±3%
[3]
  S-nitrosylated fraction of wild-type VLCAD: 27±3%
  VLCAD-specific activity: fivefold increase
[4]
  S-nitrosylation of C238A VLCAD: not S-nitrosylated
  basal activity of C238A VLCAD: did not change
[5]
  apparent KM of PBS-injected ob/ob mice relative to GSNO-injected ob/ob mice: more than fivefold higher
[5]; vs wild-type and PBS-injected ob/ob mice
  Vmax of VLCAD: similar
[6]; eNOS-/- liver homogenates treated ex vivo
  S-nitrosylation of VLCAD: readily modified ex vivo at cysteine residue Cys238
[6]; eNOS-/- liver homogenates treated ex vivo (5 μM, 30 minutes)
  KM for VLCAD enzymatic activity vs untreated homogenate: increased five-fold
